Data on seven compounds can be found in patent US8697729B2, “Small molecules modulator of epigenetic regulation and their therapeutic applications” (University of Southern California, priority 2008, dated 2014).

“Also recorded” adds a separate entry of the source.

For one test, the target named is T1, HDAC4:MEF2 interaction (Homo sapiens, UniProt Q14814).
T1 sequence (Q14814 1-521): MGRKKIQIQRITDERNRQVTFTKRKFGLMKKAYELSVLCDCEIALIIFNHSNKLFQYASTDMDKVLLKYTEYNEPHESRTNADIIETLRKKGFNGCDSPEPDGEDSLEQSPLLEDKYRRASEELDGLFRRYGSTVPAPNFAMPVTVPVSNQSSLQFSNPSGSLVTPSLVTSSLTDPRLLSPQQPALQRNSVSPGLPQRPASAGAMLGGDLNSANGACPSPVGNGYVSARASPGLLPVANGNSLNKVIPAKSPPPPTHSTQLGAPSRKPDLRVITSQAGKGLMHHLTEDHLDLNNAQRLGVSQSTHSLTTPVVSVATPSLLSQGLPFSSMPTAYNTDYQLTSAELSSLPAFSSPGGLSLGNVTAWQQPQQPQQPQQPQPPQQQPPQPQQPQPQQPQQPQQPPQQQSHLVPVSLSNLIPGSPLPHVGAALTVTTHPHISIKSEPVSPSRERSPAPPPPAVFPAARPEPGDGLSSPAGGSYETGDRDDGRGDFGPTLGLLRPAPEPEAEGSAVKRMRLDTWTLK
Briefly: Mammalian two-hybrid luciferase reporter assay (GAL4-MEF2D / HDAC4-VP16 / GAL4Luc). In kind it is cell-based. From the text: In a preferred embodiment, there is disclosed herein a two-hybrid system based assay includes a binding domain fused with a bait, an activating domain fused with a prey, and a reporter gene; and determining a reporter signal level.
A series of MEF2-dependent luciferase reporter assays with transiently transfected MEF2D, HDAC4 and the co-activator p300 were used initially to screen various compounds. But these assays gave weak signal and high frequency of false positives, probably due to the complex transcription activation mechanisms of MEF2 and interference from endogenous factors. Through these observations, it was discovered that a highly sensitive and specific assay that can recapitulate the molecular interaction between HDAC4 and MEF2 inside cells is essential.
Taking advantage of the structural insights, in addition to the MEF2D L67D mutant mentioned above, we introduced a number mutations in HDAC4 that had been previously shown to disrupt HDAC4:MEF2 interaction in vitro. These mutations also diminished the luciferase signal in the cell-based assay (FIG. 3b).

For the next test, the target named is T2, MEF2A (1-95) (Homo sapiens, UniProt Q02078).
T2 construct: purified MEF2A (1-95) was used as the analyte
T2 sequence (Q02078 1-95): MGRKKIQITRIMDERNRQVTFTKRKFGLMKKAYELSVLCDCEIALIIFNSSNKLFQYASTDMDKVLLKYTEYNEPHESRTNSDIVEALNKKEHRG
Nature of the test: Surface plasmon resonance (Biacore T-100) competition: MEF2A (1-95) binding to immobilized HDAC4 (aa 155-220). The following applies: for binding of MEF2A to immobilized HDAC4 after incubation with compound: Biacore, increasing concentrations (FIG. 5). An excerpt:
Here HDAC4 (aa 155-220) was immobilized on a CM5 sensor chip and purified MEF2A (1-95) was used as the analyte. The binding of MEF2A to HDAC4 at various concentrations generated a series of well-defined sensorgrams (data not shown). […] These technical limitations made it difficult to obtain a quantitative binding constant.
For orientation: Surface plasmon resonance follows binding to a sensor surface in real time, without labels.

For a further test, the system named is GAL4-VP16. The following applies: 10 μM; non-specific inhibition.
The subject of a further test is frataxin expression. The following applies: Friedreich's ataxia; cited from earlier work.
Test [1] relates to acetylation of histone but not tubulin. The following applies: cited from earlier work.
Another test deals with HDAC. The following applies: cited from earlier work.
The next test has as its target MEF2. Briefly: in vitro binding, method not stated.

Consider `Nc1ccccc1NC(=O)CCCCCCC(=O)Nc1ccccc1` [BML-210, suberoylanilide orthoaminoanilide], for which the “normalized luciferase activity in MEF2-HDAC luciferase reporter assay” value on HDAC4:MEF2 interaction (24 hrs after treatment (FIG. 4)) is recorded as “decreased in a dose dependent manner”. Also, on MEF2A (1-95), the “direct binding to MEF2 by Biacore” value was “beyond the detection limit” and the “binding of MEF2A to immobilized HDAC4 after incubation with compound” value is reported as “bind MEF2 competitively with HDAC4; also recorded: competitive inhibition”.

As for `Nc1ccccc1NC(=O)CCCCCC(=O)Nc1ccccc1` [PAOA, pimeloylanilide orthoaminoanilide], the “expression of HDAC4-VP16” value at HDAC4:MEF2 interaction is on record as “did not affect”. The “decrease of reporter signal driven by GAL4-MEF2D and HDAC4-VP16” value on HDAC4:MEF2 interaction (10 μM) is “about 26 fold”. Further, the “inhibition of the reporter signal in the mammalian two-hybrid assay” value at HDAC4:MEF2 interaction (GAL4-MEF2D/HDAC4-VP16, Hela cells) is reported as “inhibited the reporter signal in a dose dependent manner”. In addition, on HDAC4:MEF2 interaction (based on the mammalian two-hybrid assay), the IC50 (commonly the midpoint of a concentration-inhibition curve) was around 5 µM. For the same compound, the Kd (as a rule, a measure of binding affinity in units of concentration) on HDAC4:MEF2 interaction (estimated assuming equilibrium HDAC4 concentration ~0.5 μM and HDAC4:MEF2 Kd 0.47 μM, read-out: Kd for binding to MEF2 (estimated)) is around 5 µM. For the same compound, the “binding of MEF2A to immobilized HDAC4 after incubation with compound” value at MEF2A (1-95) was “dose dependent decrease; also recorded: binds MEF2 competitively with HDAC4”. In the test with GAL4-VP16, the “reduction of reporter signal driven by GAL4-VP16” value amounted to 5.6 fold. In the test with frataxin expression, the “frataxin expression / induction” value is “enhance the expression of frataxin”. Besides, the “selective induction of histone versus tubulin acetylation” value in test [1] is recorded as “selectively induce acetylation of histone but not tubulin”.

Consider `O=C(CCCCCCC(=O)Nc1ccccc1)NO` [SAHA, Vorinostat], for which the “frataxin expression / induction” value in the test on frataxin expression is “no effect; also recorded: did not have this type of activity”.

As to `Cc1ccc(NC(=O)CCCCCC(=O)Nc2ccccc2N)cc1` [compound 106, N^1-(2-aminophenyl)-N^7-p-tolylheptanediamide], in the test on frataxin expression, the “frataxin expression / induction” value was “very active”.

With `CC(/C=C/C(=O)NO)=C\[C@@H](C)C(=O)c1ccc(N(C)C)cc1` [trichostatin A (TSA), trichostatin A], the “frataxin expression / induction” value in the test with frataxin expression is “no effect”. In the test on HDAC, the “IC50 HDAC inhibition” value is recorded as “low nanomolar range”.

In the case of “HDAC4 mutant Val180Lys (in vitro binding) (from UniProt P56524 155-220)”, in the test with MEF2, the Kd came to 0.81 µM and the weakening of binding against wild type HDAC4 came out at 60%.

In turn, “wild type HDAC4 (in vitro binding) (from UniProt P56524 155-220)” gave a Kd with MEF2 of 0.47 µM.
